In US20090209644A1, “LIPOTOXICITY RELIEVING AGENT” (priority 2005, published 2009):
Where two headings read alike, the source gives them in different places.

How the values were obtained:
Min6 cells = assay: Restoration of impaired insulin secretion in Min6 cells after palmitic acid load (Experimental Example 2); assay type: cell-based, mouse; settings: Min6, 0.4 mM palmitic acid load 48 h, 20 mM glucose; for insulin secretion, % of normal group: normal group = 100%
Description: (1-1) Min6 cells suspended in DMEM medium (manufactured by Gibco) were seeded in a 24 well plate at 1.5×10^5 cells per well, and the cells were incubated overnight in 5% CO2 at 37° C. (1-2) To each well, palmitic acid was added to a concentration of 0.4 mM, and BSA not containing the fatty acid was added to a concentration of 0.5% (v/v), and the incubation was continued in 5% CO2 at 37° C. for 48 hours. (1-3) The cells were washed twice with PBS(−), and the incubation was continued in 5% CO2 at 37° C. for 48 hours in DMEM medium (manufactured by Sigma) after adding palmitic acid (palmitic acid group), oleic acid (oleic acid group), EPA (EPA group), or DHA (DHA group) at 50 μM, or in the absence of the fatty acid (control group). In the meanwhile, the Min6 cells cultured in the above (1-1) were incubated in the DMEM medium (manufactured by Sigma) for 48 hours as in the case of the above (1-2) but without adding the 0.4 mM palmitic acid (normal group), and these cells were washed twice with the PBS(−) and incubated in the DMEM medium (manufactured by Sigma) in the absence of the fatty acid in 5% CO2 at 37° C. for another 48 hours as in the case of the control group of the above (1-3) to prepare the sample (normal group). The stimulation with glucose was conducted by repeating the procedure of Experimental Example 1(2), and the sample that had been stimulated with 2.8 mM glucose and the sample that had been stimulated with 20 mM glucose were collected and the amount of insulin per mg of the protein were measured.

[1] = system: Langerhans' islet (pancreatic β-cell); assay: Glucose-stimulated insulin secretion of Langerhans' islet isolated from fed mice (Experimental Example 3); assay type: in vivo, mice (C57BL/6J); settings: 20 mM glucose; for insulin secretion, % of control group: control = 100%
Source text: Male mice (C57BL/6J, 8 week old, purchased from Clea Japan, Inc.) were fed on fish meal free F1 (manufactured by Funabashi Farms Co., Ltd.) for 1 week, and the mice were divided into 4 groups each including 9 to 10 mice. The 4 groups of mice were freely fed for 28 days on (1) fish meal free F1 (control group), (2) fish meal free F1 containing 20% by weight of tripalmitic acid added (palmitic acid group), (3) F1 feed not containing any fish meal having 20% by weight of tripalmitic acid and 5% by weight of EPA-E added (the group of palmitic acid plus EPA), and (4) F1 feed not containing any fish meal having 5% by weight of EPA-E added (EPA group). Before the start of the experiment, on 14th day, and on the final day, blood was taken from orbital venous plexus after fasting for 16 hours. The serum was separated, and blood free fatty acid was enzymatically measured by using NEFA Test Wako (Wako Pure Chemical Industries, Ltd.). Langerhans' islet was isolated by way of density gradient method from the pancreas that had been treated with collagenase, and cultivated in 10% (v/v) fetal bovine serum (purchased from Iwai Chemicals Company) and RPM 11640 medium) supplemented with 1% by weight of penicillin streptomycin (manufactured by Sigma) in 5% CO2 at 37° C. for 2 hours. The glucose-stimulated insulin secretion was then evaluated according to the procedure described in Experimental Example 1-(2). The Langerhans' islet was washed with PBS(−) and vigorously shaked in […] of TNE buffer (0.1M Tris-HCl, pH 7.4, 2M NaCl, 10 mM EDTA) to prepare the cell lysate. 20 μL of this cell lysate was added to 100 μL of chromogenic solution (1.2 μL of Hoechst 33258 (manufactured by Wako Pure Chemical Industries, Ltd.) added to 1 mL of TNE buffer), and the reaction was allowed to proceed at room temperature for at least 8 hours, and the measurement was conducted by using an excitation wavelength of 350 nm and a measurement wavelength of 450 nm. Similar evaluation was conducted by using bovine thymus DNA (manufactured by Sigma) to prepare a calibration curve to thereby enable determination of the DNA amount. Amount of insulin per μg of the DNA of the Langerhans' islet was measured.

Langerhans' islet = assay: Combined use of EPA and tolbutamide on palmitic acid-suppressed insulin secretion of isolated Langerhans' islet (Experimental Example 4); assay type: cell-based, mice (C57BL/6J); settings: mouse islets; for insulin secretion, % of control group / activity at 400 µM / activity at 5000 µM: control = 100%; for activity at 400 µM / activity at 5000 µM: Mus musculus, read-out: insulin secretion, % of control group
Description: Langerhans' islet was isolated from the pancreas of male mice (C57BL/6J, 8 week old, purchased from Clea Japan, Inc.) and cultured according to the procedure of Experimental Example 3, and effect of 50 μM EPA alone (the group of palmitic acid plus EPA), 5 mM tolbutamide alone (the group of palmitic acid plus tolbutamide), and combined use of 50M EPA and 5 mM tolbutamide (the group of palmitic acid plus the combination) on the suppression of the insulin secretion stimulated with 20 mM glucose and the insulin secretion stimulated with 30 mM KCl induced by 0.4 mM palmitic acid were measured according to the procedure of Experimental Example 1. Amount of insulin per 1 ng DNA of the Langerhans' islet was evaluated according to the procedure of Experimental Example 3.

[2] = system: Min6 cells from mouse pancreatic β-cell; assay: Inhibition (prophylaxis) of lipotoxicity-impaired glucose-stimulated insulin secretion in Min6 cells (Experimental Example 1); assay type: cell-based; settings: for insulin secretion (amount of insulin per mg of the protein): stimulated with 20 mM glucose
Description: Min6 cells from mouse pancreatic β-cell (provided by Dr. Miyazaki of Osaka University) suspended in DMEM medium (manufactured by GIBCO, purchased from Iwai Chemicals Company) were seeded in a 24 well plate at 1.5×10^5 cells per well, and the cells were incubated in 5% CO2 at 37° C. for 24 hours. The medium was replaced with DMEM medium (manufactured by Sigma) containing 0.5% (v/v) fatty acid free bovine serum albumin (hereinafter abbreviated as BSA) and 5.5 mM glucose, and incubated in 5% CO2 at 37° C. for 48 hours with or without (control group) one of the following fatty acids, 0.4 mM palmitic acid (palmitic acid group), 50 μM EPA (EPA group), or 0.4 mM palmitic acid and 50 μM EPA (the group of palmitic acid plus EPA). The supernatant was removed from the cell culture of (1), and the cells were washed twice with phosphate buffered saline (hereinafter abbreviated as PBS(−)), and after adding 500 μL of Krebs-Ringer-Bicarbonate-Hepes buffer (hereinafter abbreviated as KRBH buffer) containing 0.5% (v/v) fatty acid free BSA and 2.8 mM glucose, the incubated was continued in 5% CO2 at 37° C. for 1 hour. The supernatant was removed from the cell culture, and after adding 500 μL of KRBH buffer containing 0.5% (v/v) BSA and 2.8 mM glucose, the incubation was continued in 5% CO2 at 37° C. for 1 hour, and the supernatant was collected as the sample which had been stimulated with 2.8 mM glucose. Next, the cells were washed twice with PBS(−), and incubated in KRBH buffer containing 0.5% (v/v) BSA and 20 mM glucose in 5% CO2 at 37° C. for 1 hour. The supernatant was collected as the sample which had been stimulated with 20 mM glucose. The samples collected were evaluated for their insulin concentration by Levis insulin assay kit (manufactured by Shibayagi and purchased from Nakayama Co., Ltd.) and for their protein concentration by the method of […] (BCA kit), and determine the amount of insulin per mg of the protein.

[3] = Blood (serum) free fatty acid in palmitic acid fed mice (Experimental Example 3); assay type: in vivo, mice (C57BL/6J); settings: feed with 20% by weight tripalmitic acid, 28 days, vs control group
Source text: Male mice (C57BL/6J, 8 week old, purchased from Clea Japan, Inc.) were fed on fish meal free F1 (manufactured by Funabashi Farms Co., Ltd.) for 1 week, and the mice were divided into 4 groups each including 9 to 10 mice. The 4 groups of mice were freely fed for 28 days on (1) fish meal free F1 (control group), (2) fish meal free F1 containing 20% by weight of tripalmitic acid added (palmitic acid group), (3) F1 feed not containing any fish meal having 20% by weight of tripalmitic acid and 5% by weight of EPA-E added (the group of palmitic acid plus EPA), and (4) F1 feed not containing any fish meal having 5% by weight of EPA-E added (EPA group). Before the start of the experiment, on 14th day, and on the final day, blood was taken from orbital venous plexus after fasting for 16 hours. The serum was separated, and blood free fatty acid was enzymatically measured by using NEFA Test Wako (Wako Pure Chemical Industries, Ltd.). […] The glucose-stimulated insulin secretion was then evaluated according to the procedure described in Experimental Example 1-(2).

[4] = islets of mice fed 5% EPA-E alone 28 days
[5] = islets of mice fed 20% tripalmitic acid and 5% EPA-E 28 days
[6] = 0.4 mM palmitic acid plus 50 μM EPA, 5 mM tolbutamide or both, 20 mM glucose
[7] = 0.4 mM palmitic acid plus 50 μM EPA, 5 mM tolbutamide or both, 30 mM KCl
[8] = 0.4 mM palmitic acid plus 50 μM EPA, 5 mM tolbutamide or both, stimulated with 20 mM glucose
[9] = 0.4 mM palmitic acid plus 50 μM EPA, 5 mM tolbutamide or both, stimulated with 30 mM KCl
[10] = islets of mice fed 20% tripalmitic acid 28 days
[11] = then 48 h without fatty acid (control group)

## CC/C=C\C/C=C\C/C=C\C/C=C\C/C=C\C/C=C\CCC(=O)O [DHA, docosahexaenoic acid]
Min6 cells; then 50 μM fatty acid 48 h
  insulin secretion (amount of insulin per mg of the protein): 0.004073 mg
  insulin secretion, % of normal group: 81.4%

## CC/C=C\C/C=C\C/C=C\C/C=C\C/C=C\CCCC(=O)O [EPA, eicosapentaenoic acid]
[1]; [4]
  insulin secretion (amount of insulin per μg of the DNA of the Langerhans' islet): 0.0089 µg
  insulin secretion, % of control group: 121%
[1]; [5]
  insulin secretion (amount of insulin per μg of the DNA of the Langerhans' islet): 0.0082 µg
  insulin secretion, % of control group: 111%
Langerhans' islet; [6]
  insulin secretion, % of control group: 80.0%
Langerhans' islet; [7]
  insulin secretion, % of control group: 72.4%
Langerhans' islet; [8]
  insulin secretion (amount of insulin per 1 ng DNA of the Langerhans' islet): 823 pg
Langerhans' islet; [9]
  insulin secretion (amount of insulin per 1 ng DNA of the Langerhans' islet): 422 pg
Min6 cells; then 50 μM fatty acid 48 h
  insulin secretion (amount of insulin per mg of the protein): 0.004278 mg
  insulin secretion, % of normal group: 85.4%
[2]; Min6, 50 μM EPA alone 48 h
  insulin secretion (amount of insulin per mg of the protein): 0.003664 mg
[2]; Min6, 0.4 mM palmitic acid and 50 μM EPA 48 h, 20 mM glucose, control = 100%
  insulin secretion, % of control group: 54.6%
[2]; Min6, 0.4 mM palmitic acid and 50 μM EPA 48 h
  insulin secretion (amount of insulin per mg of the protein): 0.002096 mg
[2]; Mus musculus, Min6, 50 μM EPA alone 48 h, 20 mM glucose, control = 100%, read-out: insulin secretion, % of control group
  activity at 50 µM: 95.5%

## CCCCCCCC/C=C\CCCCCCCC(=O)O [oleic acid]
Min6 cells; then 50 μM fatty acid 48 h
  insulin secretion (amount of insulin per mg of the protein): 0.000659 mg
  insulin secretion, % of normal group: 13.2%

## CCCCCCCCCCCCCCCC(=O)O [palmitic acid]
[1]; [10]
  insulin secretion (amount of insulin per μg of the DNA of the Langerhans' islet): 0.0046 µg
  insulin secretion, % of control group: 63%
Langerhans' islet; 0.4 mM palmitic acid alone, 20 mM glucose
  activity at 400 µM: 55.6%
Langerhans' islet; 0.4 mM palmitic acid alone, 30 mM KCl
  activity at 400 µM: 39.3%
Langerhans' islet; 0.4 mM palmitic acid alone, stimulated with 20 mM glucose
  insulin secretion (amount of insulin per 1 ng DNA of the Langerhans' islet): 572 pg
Langerhans' islet; 0.4 mM palmitic acid alone, stimulated with 30 mM KCl
  insulin secretion (amount of insulin per 1 ng DNA of the Langerhans' islet): 229 pg
[3]
  serum free fatty acid concentration: increased more significantly with time
Min6 cells; then 50 μM fatty acid 48 h
  insulin secretion (amount of insulin per mg of the protein): 0.000742 mg
  insulin secretion, % of normal group: 14.8%
Min6 cells; [11]
  insulin secretion (amount of insulin per mg of the protein): 0.002481 mg
  insulin secretion, % of normal group: 49.6%
[2]; Min6, 0.4 mM palmitic acid alone 48 h
  insulin secretion (amount of insulin per mg of the protein): 0.00091 mg
[2]; Mus musculus, Min6, 0.4 mM palmitic acid alone 48 h, 20 mM glucose, control = 100%, read-out: insulin secretion, % of control group
  activity at 400 µM: 23.7%

## CCCCNC(=O)NS(=O)(=O)c1ccc(C)cc1 [tolbutamide]
Langerhans' islet; [6]
  activity at 5000 µM: 65.4%
Langerhans' islet; [7]
  activity at 5000 µM: 54.2%
Langerhans' islet; [8]
  insulin secretion (amount of insulin per 1 ng DNA of the Langerhans' islet): 673 pg
Langerhans' islet; [9]
  insulin secretion (amount of insulin per 1 ng DNA of the Langerhans' islet): 316 pg
